Laboratory results: patent US7927579B2, “Tandem analyses of noncovalently driven effectors for modulatory mapping of activities of protein sites” (priority 2003, dated 2011)
Where no end group is shown, it is not given here.

Legend:
HIV protease I = target: T1, HIV protease I (Human immunodeficiency virus type 1 group M subtype B, UniProt P04585); details: covalent attachment to Cys95 at the dimer interfaces; Davis et al.; cited from earlier work
T1 construct: HIV-1 PR (15 μg/ml final concentration) was preincubated at 25 C

HIV I protease = HIV I protease (Human immunodeficiency virus type 1 group M subtype B, UniProt P04585); details: Danielson et al.; cited from earlier work
HIV PR [1] = target: T2, HIV PR (Human immunodeficiency virus type 1 group M subtype B, UniProt P04585); assay: Octapeptide library screen against HIV PR with and without CuCl2; assay type: biochemical; details: non-substrate based inhibiting peptide; residual HIV PR activity measured after cupric ion scavenger
T2 construct: preincubating the tetrapeptide(s) with HIV PR then adding the disulfide
Method: Combinatorial libraries of octapeptides were synthesized using T, L, N, F, S, G, F Q, V and I at positions 3-6 to generate 10,000 octapeptides. E and I occupied positions 1 and 2, respectively, and G, L occupied positions […], respectively. The C-terminus was in amide form, and the N terminus was in amino form. The peptide libraries were synthesized by standard procedures known in the art, Houghten, supra. The libraries were screened against HIV PR with and without CuCl2. CuCl2 was added to block 50-75% activity. Libraries were screened against CuCl2 by preincubating the tetrapeptide(s) with HIV PR, then adding CuCl2 at t0 and waiting until time tx has elapsed, the time required to inhibit 50-75% of enzyme activity in the absence of the library. At tx residual HIV PR activity was measured according to Danielson et al, supra, after adding cupric ion scavenger, namely, iminodiacetic.

HIV PR [2] = target: T2, HIV PR; assay: Tetrapeptide library screen against glutathione or II on HIV PR (assay in Salto et al.); assay type: biochemical; details: tetrapeptides preincubated with HIV PR, then disulfide added; (100 μM) printed; bind at the dimer interface
Method: Targeting Cys95. […] Davis et al. Biochemistry 20:2482-2488 (1996). For quantification of the irreversible inactivation of HIV proteases by these disulfides, HIV-1 PR (15 μg/ml final concentration) was preincubated at 25 C in 50 mM HEPES (pH 8.0), 1M NaCl, 1 mM EDTA, 5% Me2SO in the presence of a 10 μM to 1 mM concentration of each inhibitor. At various times, aliquots were removed and assayed for activity. The rates of inactivation were calculated after Salto et al. J. Biol. Chem. 269:10691-10698 (1994).
Combinatorial libraries containing tetrapeptides were synthesized with free C and N termini using T, L, N, F, R, S, V, G, F Q, and H as amino acid residues randomly located at the four positions of P4P3P2P1 according to procedures well known in the art (Houghten, R. A. Annu. Rev. Pharmacol. Toxicol. 2000, 40:273-282 and references therein). The amino acids were either spatially separated or synthesized in 100 pools of 100 tetrapeptides. Libraries were screened against glutathione or II by preincubating the tetrapeptide(s) with HIV PR then adding the disulfide and waiting until time t^ has elapsed (the time required to inhibit 50-75% of the biological target molecule's activity) in the absence of the library.

Compound | inactivation of HIV protease I by covalent attachment to Cys95 (HIV protease I) | activity in library screen against disulfide inactivation of HIV PR (HIV PR [2]) | other results
O=C(O)c1cc(SSc2ccc([N+](=O)[O-])c(C(=O)O)c2)ccc1[N+](=O)[O-] [5,5′-dithiobis(2-nitrobenzoic acid)] | inactivate HIV protease I |  | 
[Cl][Cu][Cl] [Cupric ions, CuCl2] |  |  | inactivation of HIV I protease by binding to Cys67 and His69 (HIV I protease): specifically inactivate HIV I protease
N[C@@H](CCC(=O)N[C@@H](CS)C(=O)NCC(=O)O)C(=O)O [glutathione] | inactivate HIV protease I |  | 
LGQGVSIE-NH2 |  |  | inhibitory activity against HIV PR (HIV PR [1]): about 5 μM
S-F-N-L (SFNL) [tetrapeptide with free C and N termini from combinatorial library] |  | most active | 
TLNL [tetrapeptide with free C and N termini from combinatorial library] |  | most active | 
